Columns and labels:
[1] = test system: Propionibacterium acnes CIP A179; assay: Minimal inhibitory concentration (CMI) in solid medium against Propionibacterium acnes; format: cell-based; conditions: single active; Wilkins-Chalgren agar, 18h at 37°C, anaerobic
Description: La détermination de la CMI des actifs à évaluer vis-à-vis de Propionibacterium acnes consiste, dans un premier temps, à préparer une gamme comportant neuf dilutions des actifs à tester. Chaque dilution est ensuite déposée en boîte de Pétri puis recouverte de gélose Wilkins-Chalgren. Après homogénéisation puis solidification, chacune des boîtes est inoculée avec une suspension calibrée (10^7 UFC/mL) de P acnes (dépôt par strie), puis les boîtes sont incubées 18h à 37°C en anaérobiose. La souche utilisée est le Propionibacterium acnes CIP A179 (origine = glande sébacée (1946), source CRBIP, Institut Pasteur, Paris).
La préparation des géloses s'effectue à J1 en ajoutant 2 mL d'eau osmosée stérile dans une boîte de Pétri (témoin négatif) ou 2 ml de chaque dilution des gammes d'actifs 10 fois concentré et 18 mL de milieu gélosé. Après solidification à température ambiante, les boites sont séchées 30 min à 37°C puis ensemencées avec la suspension bactérienne calibrée (10^7 UFC/mL) à l'aide d'une ose calibrée de 10 µL permettant de réaliser un dépôt correspondant à environ 10^4 UFC).
La lecture des boites est effectuée après 18 heures de culture à 37°C permettant de déterminer la CMI correspondant à la plus faible concentration d'actif(s) qui inhibe toute culture visible de P acnes. La présence de 1 à 3 colonies n'est pas prise en considération.
Les produits évalués sont le S (Sytenol®A, Sytheon), Z (Zinc gluconate, Azelis), seuls et les associations S + M (mannitol, IMCD/SPCI) + G (extrait glycolique de Ginkgo biloba, Greentech) et S + M + G + Z.
Le Sytenol®A qui présente un caractère lipophile est dilué dans le DMSO (solution mère à 10%) avant d'être redilué dans l'eau osmosée. Le zinc, le mannitol et l'extrait de Ginkgo sont directement dilués dans l'eau osmosée.
Les essais ont également compris des contrôles en présence du solvant DMSO ayant servi à la solubilisation de S dans l'eau.

[2] = Protection of squalene against H2O2-induced oxidation (GC-MS assay of remaining squalene); conditions: for Indice de protection (%): squalene + H2O2 for 1 hour
Description: Le but de l'étude est d'évaluer les effets d'un méroterpène, en l'occurrence le Sytenol®A, sur l'oxydation du squalène induite par du peroxyde d'hydrogène (H2O2).
Le squalène (Sigma, St Quentin Fallavier) est mis en contact avec une quantité définie de peroxyde d'hydrogène pendant 1 heure pour induire son oxydation, en présence ou non du Sytenol®A à 0.1%, 0.25% ou 0.5% (P/V). Un contrôle est réalisé avec un anti-oxydant lipophile de référence, la vitamine E, testée à 0,16% (3,8 mM), correspondant à une concentration équimolaire de Sytenol®A à 0,1%.
A l'issue de l'oxydation, une étape d'extraction est réalisée, puis les échantillons sont analysés par chromatographie en phase gazeuse couplée à une analyse par spectrométrie de masse (GC-MS). Le squalène est dosé grâce à une gamme étalon (10 µg/ml à 2500 µg/ml). La quantité de squalène oxydée est déduite des dosages du squalène. Plus les quantités de squalène dosées sont importantes, moins il a été oxydé et inversement.

O=C(OOC(=O)c1ccccc1)c1ccccc1 [Peroxyde de Benzoyle, peroxyde de benzoyle]
CMI [1]: 0.008%

C=C[C@@](C)(/C=C/c1ccc(O)cc1)CCC=C(C)C [Sytenol®A, bakuchiol]
fois plus efficace que la vitamine E en termes de protection de l'oxydation du squalène ([2]; equimolar concentration of 3,8 mM): 2 fois
Indice de protection (%) ([2]; tested at 0.1% (3.9mM)): 30.02%
Indice de protection (%) ([2]; tested at 0.25% (9.75 mM)): 37.12%

Zinc gluconate
CMI [1]: 0.12%

vitamine E
Indice de protection (%) ([2]; tested at 0.16% (3.8mM)): 15.17%

Source: patent publication EP2583662A1, “Composition comprising a meroterpen to manage oily skin with tendency to develop acne” (priority 2011, dated 2013)
